Laboratory results reported in US11325899B2, “Benzofurane and benzothiophene derivatives as PGE2 receptor modulators” (IDORSIA PHARMACEUTICALS LTD, priority 2017, dated 2022).

Legend:
PTGER2 (EP2) = biological target: T1, PTGER2 (EP2) (Homo sapiens, UniProt P43116); test: hEP2 b-arrestin assay (PathHunter HEK 293 PTGER2 b-arrestin cells); assay type: cell-based; details: antagonistic activity, beta-arrestin assay; read-out: hEP2 b-arr IC50
T1 construct: host or cells: HEK 293 (PathHunter PTGER2 b-arrestin cell line)
How it was run: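 PathHunter HEK293 cells with ProLink-tagged EP2 and EA-β-arrestin 2 preincubated 15 min at 37 °C with compound (10 μM-2 nM or 1 μM-0.2 nM), then stimulated 120 min with 5 μM PGE2 (EC80). β-gal complementation read by chemiluminescence; IC50 from duplicate dose-response versus DMSO.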

EP2 receptor = biological target: T2, EP2 receptor (Homo sapiens, UniProt P43116); test: hEP2 cAMP assay (SF295 glioblastoma cells, HTRF cAMP, PGE2 stimulation); assay type: cell-based; details: antagonistic activity
T2 construct: SF295 glioblastoma cells express high endogenous EP2 and no EP4; host or cells: SF295 glioblastoma cells
How it was run: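 SF295 glioblastoma cells with endogenous EP2 and no EP4, in HBSS/HEPES/BSA with 2 mM IBMX, pre-incubated 45 min at room temperature with compound, then stimulated 30 min with 75 nM PGE2 (EC80). cAMP measured by HTRF; IC50 fitted from duplicate % cAMP versus DMSO control.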

T1 sequence (P43116 whole entry): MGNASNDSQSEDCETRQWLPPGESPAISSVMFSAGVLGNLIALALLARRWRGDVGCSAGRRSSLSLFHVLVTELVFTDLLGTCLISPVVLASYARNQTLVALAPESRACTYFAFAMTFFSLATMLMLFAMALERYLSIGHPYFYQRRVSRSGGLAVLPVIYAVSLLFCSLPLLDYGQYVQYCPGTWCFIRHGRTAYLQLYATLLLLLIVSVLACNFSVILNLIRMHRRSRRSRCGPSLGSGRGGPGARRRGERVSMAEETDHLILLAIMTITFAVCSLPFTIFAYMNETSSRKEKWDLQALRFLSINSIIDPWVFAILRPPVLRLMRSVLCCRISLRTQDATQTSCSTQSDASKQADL
T2 sequence (P43116 whole entry): as above

| Compound | IC50 (PTGER2 (EP2)) | IC50 (EP2 receptor) |
| --- | --- | --- |
| Cc1cc(-c2cc(NCCc3c(C)sc4c(C)cccc34)ncn2)sc1C(=O)O [Example 3, 5-{6-[2-(2,7-Dimethyl-benzo[b]thiophen-3-yl)-ethylamino]-pyrimidin-4-yl}-3-methyl-thiophene-2-carboxylic acid] | 18 nM | 18 nM |
| Cc1cc(-c2cc(NCCc3c(C)oc4c(C)cc(Cl)cc34)ncn2)sc1C(=O)O [Example 4, 5-{6-[2-(5-Chloro-2,7-dimethyl-benzofuran-3-yl)-ethylamino]-pyrimidin-4-yl}-3-methyl-thiophene-2-carboxylic acid] | 11 nM | 33 nM |
| COc1ccc(Cl)c2c(CCNc3cc(-c4ccc(C(=O)O)c(SC)c4)ncn3)c(C)sc12 [Example 15, 4-{6-[2-(4-Chloro-7-methoxy-2-methyl-benzo[b]thiophen-3-yl)-ethylamino]-pyrimidin-4-yl}-2-methylsulfanyl-benzoic acid] | 6 nM | 21 nM |
| CSc1cc(-c2cc(NCCc3c(C)oc4c(C)cc(F)cc34)ncn2)ccc1C(=O)O [Example 16, 4-{6-[2-(5-Fluoro-2,7-dimethyl-benzofuran-3-yl)-ethylamino]-pyrimidin-4-yl}-2-methylsulfanyl-benzoic acid] | 13 nM | 21 nM |
| CSc1cc(-c2cc(NCCc3c(C)oc4ccccc34)ncn2)ccc1C(=O)O [Example 18, 4-{6-[2-(2-Methyl-benzofuran-3-yl)-ethylamino]-pyrimidin-4-yl}-2-methylsulfanyl-benzoic acid] | 1 nM | 1 nM |
| CSc1cc(-c2cc(NCCc3c(C)sc4c(Cl)cc(F)cc34)ncn2)ccc1C(=O)O [Example 23, 4-{6-[2-(7-Chloro-5-fluoro-2-methyl-benzo[b]thiophen-3-yl)-ethylamino]-pyrimidin-4-yl}-2-methylsulfanyl-benzoic acid] | 9 nM | 27 nM |
| CCOc1cc(-c2cc(NCCc3c(C)sc4c(C)ccc(F)c34)ncn2)sc1C(=O)O [Example 25, 3-Ethoxy-5-{6-[2-(4-fluoro-2,7-dimethyl-benzo[b]thiophen-3-yl)-ethylamino]-pyrimidin-4-yl}-thiophene-2-carboxylic acid] | 2 nM | 8 nM |
| CCOc1cc(-c2cc(NCCc3c(C)sc4c(C)cc(F)cc34)ncn2)sc1C(=O)O [Example 32, 3-Ethoxy-5-{6-[2-(5-fluoro-2,7-dimethyl-benzo[b]thiophen-3-yl)-ethylamino]-pyrimidin-4-yl}-thiophene-2-carboxylic acid] | 2 nM | 2 nM |
| CCOc1cc(-c2cc(NCCc3csc4ccccc34)ncn2)sc1C(=O)O [Example 33, 5-[6-(2-Benzo[b]thiophen-3-yl-ethylamino)-pyrimidin-4-yl]-3-ethoxy-thiophene-2-carboxylic acid] | 19 nM | 17 nM |
| CCOc1cc(-c2cc(NCCc3c(C)oc4c(C)cc(F)cc34)ncn2)sc1C(=O)O [Example 37, 3-Ethoxy-5-{6-[2-(5-fluoro-2,7-dimethyl-benzofuran-3-yl)-ethylamino]-pyrimidin-4-yl}-thiophene-2-carboxylic acid] | 2 nM | 2 nM |
| CCOc1cc(-c2cc(NCCc3c(C)oc4c(OC)cc(Cl)cc34)ncn2)sc1C(=O)O [Example 38, 5-{6-[2-(5-Chloro-7-methoxy-2-methyl-benzofuran-3-yl)-ethylamino]-pyrimidin-4-yl}-3-ethoxy-thiophene-2-carboxylic acid] | 9 nM | 12 nM |
| CCOc1cc(-c2cc(NCCc3c(CC)oc4c(C)cc(F)cc34)ncn2)sc1C(=O)O [Example 39, 3-Ethoxy-5-{6-[2-(2-ethyl-5-fluoro-7-methyl-benzofuran-3-yl)-ethylamino]-pyrimidin-4-yl}-thiophene-2-carboxylic acid] | 31 nM | 28 nM |
| CCSc1cc(-c2cc(NCCc3c(C)sc4ccccc34)ncn2)ccc1C(=O)O [Example 43, 2-Ethylsulfanyl-4-{6-[2-(2-methyl-benzo[b]thiophen-3-yl)-ethylamino]-pyrimidin-4-yl}-benzoic acid] | 3 nM | 4 nM |

Other lines, results leading:

| IC50 (PTGER2 (EP2)) | IC50 (EP2 receptor) | Compound |
| --- | --- | --- |
| 25 nM | 23 nM | Cc1cc(-c2cc(NCCc3c(C)oc4c(C)cc(F)cc34)ncn2)sc1C(=O)O [Example 2, 5-{6-[2-(5-Fluoro-2,7-dimethyl-benzofuran-3-yl)-ethylamino]-pyrimidin-4-yl}-3-methyl-thiophene-2-carboxylic acid] |
| 4 nM | 6 nM | CSc1cc(-c2cc(NCCc3c(C)sc4c(C)cccc34)ncn2)ccc1C(=O)O [Example 14, 4-{6-[2-(2,7-Dimethyl-benzo[b]thiophen-3-yl)-ethylamino]-pyrimidin-4-yl}-2-methylsulfanyl-benzoic acid] |
| 5 nM | 9 nM | CSc1cc(-c2cc(NCCc3c(C)sc4c(C)cc(F)cc34)ncn2)ccc1C(=O)O [Example 17, 4-{6-[2-(5-Fluoro-2,7-dimethyl-benzo[b]thiophen-3-yl)-ethylamino]-pyrimidin-4-yl}-2-methylsulfanyl-benzoic acid] |
| 12 nM | 83 nM | CSc1cc(-c2cc(NCCc3c(C)sc4c(C)ccc(Cl)c34)ncn2)ccc1C(=O)O [Example 19, 4-{6-[2-(4-Chloro-2,7-dimethyl-benzo[b]thiophen-3-yl)-ethylamino]-pyrimidin-4-yl}-2-methylsulfanyl-benzoic acid] |
| 30 nM | 26 nM | CSc1cc(-c2cc(NCCc3c(C)sc4c(Cl)ccc(Cl)c34)ncn2)ccc1C(=O)O [Example 20, 4-{6-[2-(4,7-Dichloro-2-methyl-benzo[b]thiophen-3-yl)-ethylamino]-pyrimidin-4-yl}-2-methylsulfanyl-benzoic acid] |
| 4 nM | 24 nM | CSc1cc(-c2cc(NCCc3c(C)sc4c(C)c(F)ccc34)ncn2)ccc1C(=O)O [Example 21, 4-{6-[2-(6-Fluoro-2,7-dimethyl-benzo[b]thiophen-3-yl)-ethylamino]-pyrimidin-4-yl}-2-methylsulfanyl-benzoic acid] |
| 101 nM | 172 nM | CCc1oc2c(C)cc(F)cc2c1CCNc1cc(-c2ccc(C(=O)O)c(SC)c2)ncn1 [Example 22, 4-{6-[2-(2-Ethyl-5-fluoro-7-methyl-benzofuran-3-yl)-ethylamino]-pyrimidin-4-yl}-2-methylsulfanyl-benzoic acid] |
| 3 nM | 4 nM | CSc1cc(-c2cc(NCCc3c(C)sc4ccccc34)ncn2)ccc1C(=O)O [Example 24, 4-{6-[2-(2-Methyl-benzo[b]thiophen-3-yl)-ethylamino]-pyrimidin-4-yl}-2-methylsulfanyl-benzoic acid] |
| 2 nM | 11 nM | CCOc1cc(-c2cc(NCCc3c(C)sc4c(OC)ccc(F)c34)ncn2)sc1C(=O)O [Example 28, 3-Ethoxy-5-{6-[2-(4-fluoro-7-methoxy-2-methyl-benzo[b]thiophen-3-yl)-ethylamino]-pyrimidin-4-yl}-thiophene-2-carboxylic acid] |
| 14 nM | 14 nM | CCOc1cc(-c2cc(NCCc3c(C)sc4c(C)ccc(Cl)c34)ncn2)sc1C(=O)O [Example 29, 5-{6-[2-(4-Chloro-2,7-dimethyl-benzo[b]thiophen-3-yl)-ethylamino]-pyrimidin-4-yl}-3-ethoxy-thiophene-2-carboxylic acid] |
| 10 nM | 8 nM | CCOc1cc(-c2cc(NCCc3c(C)sc4c(OC)ccc(Cl)c34)ncn2)sc1C(=O)O [Example 30, 5-{6-[2-(4-Chloro-7-methoxy-2-methyl-benzo[b]thiophen-3-yl)-ethylamino]-pyrimidin-4-yl}-3-ethoxy-thiophene-2-carboxylic acid] |
| 11 nM | 10 nM | CCOc1cc(-c2cc(NCCc3c(C)oc4c(OC)cc(F)c(F)c34)ncn2)sc1C(=O)O [Example 31, 5-{6-[2-(4,5-Difluoro-7-methoxy-2-methyl-benzofuran-3-yl)-ethylamino]-pyrimidin-4-yl}-3-ethoxy-thiophene-2-carboxylic acid] |
| 6 nM | 6 nM | CCOc1cc(-c2cc(NCCc3c(C)oc4c(OC)ccc(F)c34)ncn2)sc1C(=O)O [Example 34, 3-Ethoxy-5-{6-[2-(4-fluoro-7-methoxy-2-methyl-benzofuran-3-yl)-ethylamino]-pyrimidin-4-yl}-thiophene-2-carboxylic acid] |
| 3 nM | 2 nM | CCOc1cc(-c2cc(NCCc3c(C)oc4c(Cl)cccc34)ncn2)sc1C(=O)O [Example 35, 5-{6-[2-(7-Chloro-2-methyl-benzofuran-3-yl)-ethylamino]-pyrimidin-4-yl}-3-ethoxy-thiophene-2-carboxylic acid] |
| 1 nM | 4 nM | CCOc1cc(-c2cc(NCCc3c(C)sc4c(C)cccc34)ncn2)sc1C(=O)O [Example 36, 5-{6-[2-(2,7-Dimethyl-benzo[b]thiophen-3-yl)-ethylamino]-pyrimidin-4-yl}-3-ethoxy-thiophene-2-carboxylic acid] |
| 48 nM | 94 nM | COc1cc(-c2cc(NCCc3c(C)sc4c(OC)ccc(Cl)c34)ncn2)ccc1C(=O)O [Example 40, 4-{6-[2-(4-Chloro-7-methoxy-2-methyl-benzo[b]thiophen-3-yl)-ethylamino]-pyrimidin-4-yl}-2-methoxy-benzoic acid] |
| 4 nM | 14 nM | CCSc1cc(-c2cc(NCCc3c(C)sc4c(C)cccc34)ncn2)ccc1C(=O)O [Example 42, 4-{6-[2-(2,7-Dimethyl-benzo[b]thiophen-3-yl)-ethylamino]-pyrimidin-4-yl}-2-ethylsulfanyl-benzoic acid] |
